This note sets out measurements from publication PMC4030953, “Pyranose Dehydrogenase from Agaricus campestris and Agaricus xanthoderma: Characterization and Applications in Carbohydrate Conversions” (Biomolecules, 2013).

In assay [1] the target is T1, AcPDH (Agaricus campestris, UniProt V5NDL4).
T1 construct: gene pdh1
Description: in-gel flavin fluorescence after SDS-PAGE. It counts as binding. As to conditions: covalent; UV 302 nm.

The target of assay [2] is T1, AcPDH. The assay is described as follows: spectrophotometric electron acceptor reduction. It counts as biochemical. As to conditions: apparent, 25 mM D-glucose, pH 8.5, 30 °C. From the text:
spectrophotometric electron acceptor reduction on AcPDH

In assay [3] the target is T2, AxPDH (Agaricus xanthodermus, UniProt V5NC32).
T2 construct: gene pdh1
The assay is described as follows: spectrophotometric electron acceptor reduction. The assay is classed as biochemical. To be noted: apparent, 25 mM D-glucose, pH 8.5, 30 °C. From the text: spectrophotometric electron acceptor reduction on AxPDH

Each structure is given as a SMILES string.

T1 sequence (V5NDL4 22-595): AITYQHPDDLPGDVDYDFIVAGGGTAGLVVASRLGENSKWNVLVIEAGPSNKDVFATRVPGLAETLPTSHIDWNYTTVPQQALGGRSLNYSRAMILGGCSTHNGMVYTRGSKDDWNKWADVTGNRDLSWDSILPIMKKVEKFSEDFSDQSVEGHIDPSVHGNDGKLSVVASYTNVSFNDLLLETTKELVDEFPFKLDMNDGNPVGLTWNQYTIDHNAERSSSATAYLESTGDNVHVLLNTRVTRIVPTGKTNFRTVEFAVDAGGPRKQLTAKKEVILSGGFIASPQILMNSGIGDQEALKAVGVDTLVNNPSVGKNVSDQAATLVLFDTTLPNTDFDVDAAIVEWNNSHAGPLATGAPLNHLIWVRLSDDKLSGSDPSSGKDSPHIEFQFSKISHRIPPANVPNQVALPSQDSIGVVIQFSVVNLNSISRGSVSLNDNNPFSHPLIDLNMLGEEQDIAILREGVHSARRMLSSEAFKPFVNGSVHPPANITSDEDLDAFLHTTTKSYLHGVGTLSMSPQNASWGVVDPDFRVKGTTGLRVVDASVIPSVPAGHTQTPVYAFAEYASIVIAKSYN
T2 sequence (V5NC32 26-600): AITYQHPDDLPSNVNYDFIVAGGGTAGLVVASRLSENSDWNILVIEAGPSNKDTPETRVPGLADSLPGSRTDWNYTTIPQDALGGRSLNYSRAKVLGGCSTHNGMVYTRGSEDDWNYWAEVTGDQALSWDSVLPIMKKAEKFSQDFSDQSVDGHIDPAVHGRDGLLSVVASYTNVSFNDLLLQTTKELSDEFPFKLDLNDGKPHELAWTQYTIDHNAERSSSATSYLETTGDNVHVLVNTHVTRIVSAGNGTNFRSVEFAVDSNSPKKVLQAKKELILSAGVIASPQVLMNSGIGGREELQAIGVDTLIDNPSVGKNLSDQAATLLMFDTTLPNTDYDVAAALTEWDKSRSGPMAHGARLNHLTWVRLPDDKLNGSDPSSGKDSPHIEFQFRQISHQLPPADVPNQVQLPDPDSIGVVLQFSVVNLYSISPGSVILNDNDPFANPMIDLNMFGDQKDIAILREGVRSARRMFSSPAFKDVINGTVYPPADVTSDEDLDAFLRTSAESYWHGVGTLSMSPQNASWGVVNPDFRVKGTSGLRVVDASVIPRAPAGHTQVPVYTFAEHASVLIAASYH

Consider `Cc1cc2nc3c(=O)[nH]c(=O)nc-3n(C[C@H](O)[C@H](O)[C@H](O)COP(=O)(O)OP(=O)(O)OC[C@H]3O[C@@H](n4cnc5c(N)ncnc54)[C@H](O)[C@@H]3O)c2cc1C` [FAD], for which the “in-gel flavin fluorescence after SDS-PAGE” value in assay [1] was “AcPDH and AxPDH showed a bright band under UV-light”.

As to `F[P-](F)(F)(F)(F)F.[Fe+3].c1cc[cH-]c1.c1cc[cH-]c1` [Fc^+PF6], the Km in assay [2] worked out at 1190 ± 170 µM; in assay [3], 30 µM.

Usually Km stands for the concentration of substrate that gives half-maximal velocity.
